Reference: the supplement of paper PMC10307832

Columns and labels:
Assay in all cases: relative viability (nuclei count vs DMSO), 5 days (fraction); higher = more cells survive
[1] = compound: CN(C/C=C/C1=CC=C(C=C1)Cl)CC2=CC=CC=C2N(CCO)S(=O)(=O)C3=CC=C(C=C3)OC [KN-93]
How it was run: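 Following overnight incubation at 37 °C, lung cancer cell lines in 1536-well plates were pinned with five library-drug doses (not always all listed) in √10 steps on vehicle-anchored plates. The cells then spent 5 days without medium change before a combined fix, permeabilisation and Hoechst stain, 4× imaging and MetaXpress nuclear counts. Viability is the treated-to-vehicle ratio of nuclei, taken as the median across plates. Only plates with control CV below 25% and at least one doubling passed.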

[2] = compound: CN(C/C=C/C1=CC=C(C=C1)Cl)CC2=CC=CC=C2N(CCO)S(=O)(=O)C3=CC=C(C=C3)OC [KN-93] + Cc1nc(NC(=O)N2CCC[C@H]2C(N)=O)sc1-c1ccnc(C(C)(C)C(F)(F)F)c1 [Alpelisib] (partner 2 µM)
How it was run: (§1)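 Relative viability divides the nuclei count in treated wells by that in vehicle wells. Lung cancer cell lines were seeded in 1536-well plates, dosed by pin tool the next day, and fixed and stained after 5 days in one step with final 0.05% Triton X-100, 1% formaldehyde and 1 ug/ml Hoechst. Dosing was a single drug or a fixed anchor-drug dose plus five library-drug doses (not always all listed) in √10 steps, and values are medians of duplicate plates imaged at 4×.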

[3] = compound: CN(C/C=C/C1=CC=C(C=C1)Cl)CC2=CC=CC=C2N(CCO)S(=O)(=O)C3=CC=C(C=C3)OC [KN-93] + O=C(c1cc(Cc2n[nH]c(=O)c3ccccc23)ccc1F)N1CCN(C(=O)C2CC2)CC1 [Olaparib] (partner 8 µM)
How it was run: as §1

[4] = compound: CN(C/C=C/C1=CC=C(C=C1)Cl)CC2=CC=CC=C2N(CCO)S(=O)(=O)C3=CC=C(C=C3)OC [KN-93] + COc1cc2c(Oc3ccc(NC(=O)C4(C(=O)Nc5ccc(F)cc5)CC4)cc3F)ccnc2cc1OCCCN1CCOCC1 [Foretinib] (partner 0.25 µM)
How it was run: as §1

[5] = compound: CN(C/C=C/C1=CC=C(C=C1)Cl)CC2=CC=CC=C2N(CCO)S(=O)(=O)C3=CC=C(C=C3)OC [KN-93] + CS(=O)(=O)CCNCc1ccc(-c2ccc3ncnc(Nc4ccc(OCc5cccc(F)c5)c(Cl)c4)c3c2)o1 [Lapatinib] (partner 2 µM)
How it was run: as §1

[6] = compound: CN(C/C=C/C1=CC=C(C=C1)Cl)CC2=CC=CC=C2N(CCO)S(=O)(=O)C3=CC=C(C=C3)OC [KN-93] + CS(=O)(=O)N1CCN(Cc2cc3nc(-c4cccc5[nH]ncc45)nc(N4CCOCC4)c3s2)CC1 [Pictilisib] (partner 1 µM)
How it was run: as §1

[7] = compound: CN(C/C=C/C1=CC=C(C=C1)Cl)CC2=CC=CC=C2N(CCO)S(=O)(=O)C3=CC=C(C=C3)OC [KN-93] + C[C@]1(O)C[C@@H](c2nc(-c3ccc4ccc(-c5ccccc5)nc4c3)c3c(N)nccn32)C1 [Linsitinib] (partner 1 µM)
How it was run: as §1

[8] = compound: CN(C/C=C/C1=CC=C(C=C1)Cl)CC2=CC=CC=C2N(CCO)S(=O)(=O)C3=CC=C(C=C3)OC [KN-93] + CC(C)C[C@H](NC(=O)[C@H](Cc1ccccc1)NC(=O)c1cnccn1)B(O)O [Bortezomib] (partner 0.002 µM)
How it was run: as §1

[9] = compound: CN(C/C=C/C1=CC=C(C=C1)Cl)CC2=CC=CC=C2N(CCO)S(=O)(=O)C3=CC=C(C=C3)OC [KN-93] + C[C@@H](Oc1cc(-c2cnn(C3CCNCC3)c2)cnc1N)c1c(Cl)ccc(F)c1Cl [Crizotinib] (partner 1 µM)
How it was run: as §1

[10] = compound: CN(C/C=C/C1=CC=C(C=C1)Cl)CC2=CC=CC=C2N(CCO)S(=O)(=O)C3=CC=C(C=C3)OC [KN-93] + CC1(C)CCC(c2ccc(Cl)cc2)=C(CN2CCN(c3ccc(C(=O)NS(=O)(=O)c4ccc(N[C@H](CCN5CCOCC5)CSc5ccccc5)c(S(=O)(=O)C(F)(F)F)c4)cc3)CC2)C1 [Navitoclax] (partner 0.5 µM)
How it was run: as §1

Row | Cell Line | relative viability ([1]; 0.08 µM) | relative viability ([1]; 0.253 µM) | relative viability ([1]; 2.53 µM) | relative viability ([1]; 8 µM) | relative viability ([2]; first compound 0.08 µM) | relative viability ([2]; first compound 0.253 µM) | relative viability ([2]; first compound 2.53 µM) | relative viability ([2]; first compound 8 µM) | relative viability ([3]; first compound 0.08 µM) | relative viability ([3]; first compound 0.253 µM) | relative viability ([3]; first compound 2.53 µM) | relative viability ([3]; first compound 8 µM) | relative viability ([4]; first compound 0.08 µM) | relative viability ([4]; first compound 0.253 µM) | relative viability ([4]; first compound 2.53 µM) | relative viability ([4]; first compound 8 µM) | relative viability ([5]; first compound 0.08 µM) | relative viability ([5]; first compound 0.253 µM) | relative viability ([5]; first compound 2.53 µM) | relative viability ([5]; first compound 8 µM) | relative viability ([6]; first compound 0.253 µM) | relative viability ([6]; first compound 2.53 µM) | relative viability ([6]; first compound 8 µM) | relative viability ([7]; first compound 0.08 µM) | relative viability ([7]; first compound 0.253 µM) | relative viability ([7]; first compound 2.53 µM) | relative viability ([7]; first compound 8 µM) | relative viability ([8]; first compound 0.08 µM) | relative viability ([8]; first compound 0.253 µM) | relative viability ([8]; first compound 2.53 µM) | relative viability ([8]; first compound 8 µM) | relative viability ([9]; first compound 0.08 µM) | relative viability ([9]; first compound 0.253 µM) | relative viability ([9]; first compound 2.53 µM) | relative viability ([9]; first compound 8 µM) | relative viability ([10]; first compound 0.08 µM) | relative viability ([10]; first compound 0.253 µM) | relative viability ([10]; first compound 2.53 µM) | relative viability ([10]; first compound 8 µM)
1 | Calu-6 | 0.872 | 1.09 | 1.16 | 0.69 | 1.09 | 1.12 | 0.981 | 0.644 | 0.503 | 0.546 | 0.699 | 0.429 | 0.861 | 0.997 | 0.882 | 0.622 | 0.932 | 1.25 | 1.37 | 0.567 | 1.06 | 1.09 | 0.454 | 0.784 | 1 | 1.16 | 0.904 | 1.1 | 1.05 | 1.13 | 0.633 | 0.638 | 1.09 | 0.786 | 0.41 | 0.805 | 0.894 | 0.951 | 0.36
2 | EBC-1 |  | 1.03 | 1.01 | 0.693 | 0.821 | 0.889 | 0.599 | 0.497 | 0.652 | 0.69 | 0.652 | 0.52 |  | 0.0885 | 0.12 | 0.124 |  |  | 0.183 | 0.233 | 0.317 | 0.343 | 0.224 | 0.905 | 0.907 | 1.07 | 0.869 | 0.577 | 0.492 | 0.426 | 0.243 |  |  | 0.216 | 0.192 | 0.375 | 0.337 | 0.274 | 0.178
3 | NCI-H1299 | 1.01 | 1.1 | 1.04 | 0.796 | 0.951 | 1.15 | 1.09 | 1.07 | 0.941 | 1.06 | 1 | 0.594 | 1.12 | 1.13 | 1.14 | 0.904 | 0.992 | 1.04 | 0.952 | 0.708 | 1.03 | 0.656 | 0.267 | 0.959 | 1.22 | 1.02 | 0.861 | 0.969 | 1.01 | 1.05 | 0.969 | 0.885 | 1.14 | 0.891 | 0.514 | 1.07 | 1.04 | 1.11 | 1.02
